According to EP3045469A1, “POLYMYXIN DERIVATIVE AND USES THEREOF” (priority 2015, dated 2016):
Values joined by “and” are separate entries in the source; they are usually repeats but may differ in a detail not shown here. Equal values may be shown once. Read-outs that look alike come from different tables or passages of the source.

Columns and labels:
A. baumannii CMI 417 = assay: MIC assay (CLSI broth microdilution; checkerboard with rifampin); assay type: cell-based, Acinetobacter baumannii; settings: in combination with rifampin (0.25 µg/mL), duplicate checkerboard assays; polymyxin-nonsusceptible strain
Description: (§1) Synergy studies were performed by using polymyxin derivatives in combination with rifampin, a model compound for such antibacterial agents that the intact outer membrane of Gram-negative bacteria acts as a permeability barrier.

[1] = patients, in selected materials; cited from earlier work
K. pneumoniae ATCC 43816 = tested on: K. pneumoniae ATCC 43816
Description: as §1

E. coli ATCC 25922 = tested on: E. coli ATCC 25922
Description: as §1

A. baumannii ATCC 19606 = tested on: A. baumannii ATCC 19606
Description: as §1

E. coli JMI 3328 = tested on: E. coli JMI 3328
Description: as §1

P. aeruginosa JMI 7445 = tested on: P. aeruginosa JMI 7445
Description: as §1

P. aeruginosa ATCC 27853 = tested on: P. aeruginosa ATCC 27853
Description: as §1

A. baumannii JMI 48125 = tested on: A. baumannii JMI 48125
Description: as §1

K. pneumoniae JMI 27072 = tested on: K. pneumoniae JMI 27072
Description: as §1

[2] = Toxicokinetics (plasma and urine levels by LC-MS/MS) in cynomolgus monkeys
Description: For seven days, the animals were dosed by intravenous (IV) infusion three times daily (TID) at a dose volume of 10 mL/kg for 1 hour (± 10 minutes), 8 ± 0.5 hours apart. The day of initial dose administration was designated study Day 1, with subsequent days consecutively numbered. Days prior to the initial dose administration were consecutively numbered with the final day of acclimation referenced as Day -1.
The following parameters were evaluated at designed intervals: clinical observations, body weights, clinical pathology (hematology, coagulation, serum chemistry, urinalysis including urine sediments and urine chemistry), toxi-cokinetics (plasma and urine) and anatomic pathology (kidney). In cases of animals sacrificed on an unscheduled basis, samples were taken on the day of the sacrifice.
Plasma and urine concentrations for toxicokinetic (TK) studies were determined by using liquid chromatograph interfaced with a mass spectrometer after precipitation of proteins. A sample (100 µL) was mixed with internal standard solution in water:formic acid (99:1 v/v; […]). Then, 600µL of 100:1 acetonitrile:formic acid was added. The plates were centrifuged at 3200 rpm for 5 minutes. Using a Tomtec Quadra96, a 450 µL aliquot was transferred to a new 96-well plate and dried under nitrogen at 40°C. Then, 200 µL of water:methanol:formic acid (85:15:1 1 v/v) was added and the plate sealed for LC-MS/MS injection. LC-MS system consisted of Waters Acquity liquid chromatograph interfaced with a Thermo Scientific TSQ Quantitative triple quadrupole MS with ionization in the positive ion mode. Each sample (20 µL) was injected onto a Waters Acquity BEH Shield RP18 column (2.1 x 50 mm; 1.7 µm) equilibrated at 50°C. Mobile Phase A was 85:15:1 v/v water:methanol:formic acid. Mobile Phase B was 50:50:1 v/v acetonitrile:methanol:formic acid.
Peak area ratios from the calibration standard responses were regressed using a (1/concentration^2) linear fit for polymyxin B using colistin as the internal standard. For NAB739 and NAB815, peak areas from the calibration standard responses were regressed using a (1/concentration^2) quadratic fit (without the use of an internal standard).
Toxicokinetic analysis was performed by using WinNonlin Phoenix version 6.3 software (Pharsight, Cary, NC). For plasma TK, noncompartmental IV infusion model was used.
The data is from the cynomolgus monkey studies described in the Example 3, where the peptides were administered as a 1-hour intravenous infusion thrice a day. The plasma and urine levels of the peptides were determined as in Example 3.

[3] = alone, Müller-Hinton II broth, 35°C, 20 hours
[4] = in combination with rifampin (0.25 µg/mL), duplicate checkerboard assays

Polymyxin B
MIC (A. baumannii CMI 417): 1 µg/mL | nephrotoxicity rate [1]: ≤ 55% | MIC (K. pneumoniae ATCC 43816; [3]): 2 µg/mL | MIC (K. pneumoniae ATCC 43816; [4]): 0.5 to 1 µg/mL | MIC (E. coli ATCC 25922; [3]): 2 µg/mL | MIC (E. coli ATCC 25922; [4]): 0.5 to 1 µg/mL | MIC (A. baumannii ATCC 19606; [3]): 2 µg/mL | MIC (A. baumannii ATCC 19606; [4]): 0.5 µg/mL | MIC (E. coli JMI 3328; [3]): 2 µg/mL | MIC (E. coli JMI 3328; [4]): 0.5 to 1 µg/mL | MIC (P. aeruginosa JMI 7445; [3]): 2 µg/mL | MIC (P. aeruginosa JMI 7445; [4]): 1 µg/mL | MIC (P. aeruginosa ATCC 27853; [3]): 2 µg/mL | MIC (P. aeruginosa ATCC 27853; [4]): 1 µg/mL | MIC (A. baumannii JMI 48125; [3]): 2 µg/mL | MIC (A. baumannii JMI 48125; [4]): 1 µg/mL | MIC (K. pneumoniae JMI 27072; [3]): 2 µg/mL | MIC (K. pneumoniae JMI 27072; [4]): 1 µg/mL | concentration in the urine ([2]; after infusion at 8 mg/kg, highest found either in the 0-4 h or 4-8 h sample, given for each animal, 8 mg/kg): 7000 ng/mL and 9000 ng/mL and 15000 ng/mL | 0-8 h recovery in urine ([2]; after the infusion of 8 mg/kg, percentages given for each animal, 8 mg/kg): 1 % of the dose and 2 % of the dose (2×) | Area under the concentration-time from time 0 h to 8 h (AUCs 0-8h) ([2]; plasma, after the infusion of 8 mg/kg, day 1): 112 (SD=5) hr*µg/mL
